{"source": "patent US6100273A", "about": "“Water soluble camptothecin derivatives” (priority 1997, dated 2000)", "key": {"topoisomerase Type I": {"biological_target": "T1, topoisomerase Type I (Bos taurus, UniProt F1MN93)", "T1 sequence (F1MN93 1-767)": "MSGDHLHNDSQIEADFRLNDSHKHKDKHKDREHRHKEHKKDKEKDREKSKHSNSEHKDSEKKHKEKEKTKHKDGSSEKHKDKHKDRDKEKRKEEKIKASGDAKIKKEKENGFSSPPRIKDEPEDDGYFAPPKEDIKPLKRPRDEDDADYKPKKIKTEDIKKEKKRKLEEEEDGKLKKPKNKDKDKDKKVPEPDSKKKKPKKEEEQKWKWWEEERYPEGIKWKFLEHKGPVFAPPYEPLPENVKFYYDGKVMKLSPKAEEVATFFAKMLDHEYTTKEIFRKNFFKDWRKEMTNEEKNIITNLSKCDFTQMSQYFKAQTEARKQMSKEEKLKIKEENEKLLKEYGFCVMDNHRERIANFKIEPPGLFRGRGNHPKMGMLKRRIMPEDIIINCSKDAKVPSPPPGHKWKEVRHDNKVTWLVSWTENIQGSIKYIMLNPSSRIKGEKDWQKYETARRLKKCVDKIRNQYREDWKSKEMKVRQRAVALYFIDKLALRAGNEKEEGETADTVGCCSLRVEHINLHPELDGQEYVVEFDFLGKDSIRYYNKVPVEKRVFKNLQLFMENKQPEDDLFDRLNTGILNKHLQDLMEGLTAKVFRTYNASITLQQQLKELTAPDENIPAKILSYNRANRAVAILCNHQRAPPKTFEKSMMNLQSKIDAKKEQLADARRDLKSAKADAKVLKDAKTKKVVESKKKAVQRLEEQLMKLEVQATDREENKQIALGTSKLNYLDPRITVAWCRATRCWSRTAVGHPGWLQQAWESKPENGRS", "experiment": "biochemical", "description": "Cleavable Complex in vitro Assay\nThe relative topoisomerase Type I inhibitory activity of the compounds of formula (I) was determined by cleavable complex in vitro assay. This assay performed according to the method described in Hsiang, Y. et al., J. Biol. Chem., 260:14873-14878 (1985), correlates well with in vivo anti-tumor activity of topoisomerase inhibitors in animal models of cancer, e.g., camptothecin and its analogs. See Hsiang et al., Cancer Research, 49:4385-4389 (1989) and Jaxel et al., Cancer Research, 49:1465-1469 (1989)."}, "[1]": {"conditions": "Wani et al.; cited from earlier work"}, "[2]": {"conditions": "cited from earlier work"}, "[3]": {"experiment": "Oxidation during purification", "assay_type": "physicochemical", "conditions": "oxidizes to the sulfinyl compound of Example 27", "description": "Mp. 195° C. (dec). MS MH+554."}, "certain solid tumors": {"tested_on": "certain solid tumors", "conditions": "laboratory animals; cited from earlier work"}, "leukemia (L-1210)": {"tested_on": "leukemia (L-1210)", "conditions": "laboratory animals; cited from earlier work"}, "tumor": {"tested_on": "tumor", "conditions": "background on camptothecin; cited from earlier work"}, "topoisomerase I": {"tested_on": "topoisomerase I", "conditions": "background on camptothecin; cited from earlier work"}}, "note": "Structures can show the parent of a compound that is named as a salt. Where two headings read alike, the source gives them in different places.", "data": [{"molecule": "CC[C@@]1(O)C(=O)OCc2c1cc1n(c2=O)Cc2c-1nc1cc3c(cc1c2C[n+]1cccc(CO)c1)OCCO3", "note": "[Example 36, 7-(3'-Hydroxymethylpyridinium)methylene-10,11-ethylenedioxy-20(S)-camptothecin chloride]", "values": [{"measurement": "IC50", "setting": "topoisomerase Type I; concentration at which 50% of the DNA substrate has been captured by topoisomerase 1, read-out: topoisomerase Type I inhibitory activity (IC50)", "value": "> 0.5", "unit": "µM"}]}, {"molecule": "CCC1(O)C(=O)OCc2c1cc1n(c2=O)Cc2cc3cc4c(cc3nc2-1)OCO4", "note": "(stereo not drawn) [10,11-methylenedioxycamptothecin]", "values": [{"measurement": "potency relative to unsubstituted camptothecin", "setting": "[1]", "value": "more potent"}, {"measurement": "water solubility", "setting": "[2]; compared with camptothecin", "value": "as poor as camptothecin"}]}, {"molecule": "CC[C@@]1(O)C(=O)OCc2c1cc1n(c2=O)Cc2c-1nc1cc3c(cc1c2C[S+]([O-])CCCN(C)C)OCCO3", "note": "(stereo partly drawn) [Example 27, 7-(3-Dimethylaminopropylsulfinyl)methyl-10,11-(ethylenedioxy)-20(S)-camptothecin]", "values": [{"measurement": "oxidation during purification", "setting": "[3]", "value": "readily oxidize"}]}, {"molecule": "CC[C@@]1(O)C(=O)OCc2c1cc1n(c2=O)Cc2c-1nc1cc3c(cc1c2CSc1ccc(NC(C)=O)cc1)OCCO3", "note": "[Example 17, 7-(4-Acetamidophenylthio)methyl-10,11-(ethylenedioxy)-20(S)-camptothecin]", "values": [{"measurement": "IC50", "setting": "topoisomerase Type I; read-out: topoisomerase Type I inhibitory activity (IC50), concentration at which 50% of the DNA substrate has been captured by topoisomerase 1", "value": "> 0.5", "unit": "µM"}]}, {"molecule": "CC[C@@]1(O)C(=O)OCc2c1cc1n(c2=O)Cc2c-1nc1cc3c(cc1c2CSc1ccc(N)cc1)OCCO3", "note": "[Example 18, 7-(4-Aminophenylthio)methyl-10,11-(ethylenedioxy)-20(S)-camptothecin]", "values": [{"measurement": "IC50", "setting": "topoisomerase Type I", "value": "> 0.5", "unit": "µM"}]}, {"molecule": "CC[C@@]1(O)C(=O)OCc2c1cc1n(c2=O)Cc2cc3ccccc3nc2-1", "note": "[Camptothecin]", "values": [{"measurement": "effectiveness in the treatment of certain solid tumors", "setting": "certain solid tumors", "value": "effective"}, {"measurement": "effectiveness in the treatment of leukemia (L-1210)", "setting": "leukemia (L-1210)", "value": "effective"}, {"measurement": "antitumor activity", "setting": "tumor", "value": "potent antitumor agent"}, {"measurement": "topoisomerase I inhibition", "setting": "topoisomerase I", "value": "topoisomerase I inhibitor"}, {"measurement": "solubility in physiologically compatible, aqueous media", "setting": "[2]", "value": "essentially insoluble"}]}, {"molecule": "CC[C@@](O)(C(=O)O)c1cc2n(c(=O)c1CO)Cc1cc3ccccc3nc1-2", "note": "[sodium salt]", "values": [{"measurement": "solubility in physiologically compatible, aqueous media", "setting": "[2]", "value": "soluble"}]}, {"molecule": "CCC1(O)C(=O)OCc2c1cc1n(c2=O)Cc2c-1nc1cc3c(cc1c2C[n+]1ccccc1)OCCO3", "note": "(racemic) [Example 31, 7-Pyridinium methylene-10,11 ethylenedioxy-20(R,S)-camptothecin chloride]", "values": [{"measurement": "IC50", "setting": "topoisomerase Type I", "value": "> 1", "unit": "µM"}]}, {"molecule": "CC[C@@]1(O)C(=O)OCc2c1cc1n(c2=O)Cc2c-1nc1cc3c(cc1c2CSc1ccc(NC(=O)CN(C)C)cc1)OCCO3", "note": "[Example 28, 7-(4-(2-Dimethylaminoacetamido)phenylthio)methyl-10,11-(ethylenedioxy)-20(S)-camptothecin]", "values": [{"measurement": "IC50", "setting": "topoisomerase Type I", "value": "> 0.5", "unit": "µM"}]}, {"molecule": "CCCCOP(=O)(Cc1c2c(nc3cc4c(cc13)OCCO4)-c1cc3c(c(=O)n1C2)COC(=O)[C@]3(O)CC)OCCCC", "note": "[Example 15, 7-Di-n-butylphosphonomethylene-10,11-(ethylenedioxy)-20(S)-camptothecin]", "values": [{"measurement": "IC50", "setting": "topoisomerase Type I", "value": "> 2", "unit": "µM"}]}]}
